Structures are written as SMILES. Values after ≈ are worked out from the molar mass of the structure shown.

Here are results for 14 molecules from ChEMBL document CHEMBL6127079, “Design and synthesis of spiro[pyrrolidine-3,3'-quinoline]-2,2'-dione derivatives as novel antifungal agents targeting chitin synthase” (Eur J Med Chem, 2024).

The test system of one experiment is Candida tropicalis. Description: Inhibition of chitin synthase extracted from Candida tropicalis ATCC 750 using UDP-GlcNAc as substrate assessed as inhibition rate at 300 ug/ml by TMB based microplate analyzer relative to control. As to conditions: dose 300.0 µg/ml.
The subject of a further experiment is Candida albicans. Description: Antifungal activity against Candida albicans ATCC 76615 assessed as inhibition of growth incubated for 24 hrs by two-fold serial dilution method. In kind it is functional.
The test system of another experiment is Aspergillus flavus. Description: Antifungal activity against Aspergillus flavus ATCC 16870 assessed as inhibition of growth incubated for 24 hrs by two-fold serial dilution method. It counts as functional.
The next experiment concerns Aspergillus fumigatus. Description: Antifungal activity against Aspergillus fumigatus GIMCC 3.19 assessed as inhibition of growth incubated for 24 hrs by two-fold serial dilution method. It counts as functional.
For another experiment, the system named is Cryptococcus neoformans. Description: Antifungal activity against Cryptococcus neoformans ATCC 32719 assessed as inhibition of growth incubated for 24 hrs by two-fold serial dilution method. It counts as functional.

By inhibition is commonly meant how much of the control response was suppressed. What is called MIC is the smallest concentration in the dilution series that meets the test's criterion for growth inhibition. For `O=C(CN1CCC(C(=O)Nc2ccc(F)cc2)CC1)Nc1ccc2c(c1)NC(=O)C1(CCNC1=O)C2` (racemic), the inhibition in the experiment with Candida tropicalis was 79.7%. For the same molecule, the minimal inhibitory concentration (MIC) was 128 µg/mL (≈ 259 µM) in the experiment with Candida albicans, 32 µg/mL (≈ 64.8 µM) in the experiment on Aspergillus flavus, 64 µg/mL (≈ 130 µM) in the experiment with Aspergillus fumigatus and 128 µg/mL (≈ 259 µM) in the experiment on Cryptococcus neoformans.

For `Cc1ccc(NC(=O)C2CCN(CC(=O)Nc3ccc4c(c3)NC(=O)C3(CCNC3=O)C4)CC2)cc1C` (racemic), the inhibition in the experiment on Candida tropicalis stood at 42.3%. Moreover, the MIC was 32 µg/mL (≈ 63.5 µM) in the experiment on Candida albicans, 32 µg/mL (≈ 63.5 µM) with Aspergillus flavus, 64 µg/mL (≈ 127 µM) in the experiment with Aspergillus fumigatus and 64 µg/mL (≈ 127 µM) with Cryptococcus neoformans.

As to `O=C(/C=C/C(=O)Nc1ccc2c(c1)NC(=O)C1(CCNC1=O)C2)Nc1ccccc1` (racemic), the inhibition in the experiment with Candida tropicalis amounted to 39.6%. The minimum inhibitory concentration (MIC) came to 64 µg/mL (≈ 158 µM) in the experiment on Candida albicans, 64 µg/mL (≈ 158 µM) in the experiment with Aspergillus flavus, 32 µg/mL (≈ 79.1 µM) in the experiment with Aspergillus fumigatus and 128 µg/mL (≈ 316 µM) in the experiment with Cryptococcus neoformans.

On to `CCCNC(=O)/C=C/C(=O)Nc1ccc2c(c1)NC(=O)C1(CCNC1=O)C2` (racemic), for which the inhibition in the experiment on Candida tropicalis stood at 36.9%. The MIC with Candida albicans turned out to be 128 µg/mL (≈ 346 µM); in the experiment on Aspergillus flavus, 128 µg/mL (≈ 346 µM); with Aspergillus fumigatus, 64 µg/mL (≈ 173 µM); in the experiment on Cryptococcus neoformans, 128 µg/mL (≈ 346 µM).

Consider `CCCN(CCC)C(=O)/C=C/C(=O)Nc1ccc2c(c1)NC(=O)C1(CCNC1=O)C2` (racemic), for which, in the experiment with Candida tropicalis, the inhibition came to 26.3%. Moreover, the minimal inhibitory concentration (MIC) with Candida albicans turned out to be 128 µg/mL (≈ 310 µM); in the experiment with Aspergillus flavus, 128 µg/mL (≈ 310 µM); in the experiment with Aspergillus fumigatus, 256 µg/mL (≈ 621 µM); with Cryptococcus neoformans it was 128 µg/mL (≈ 310 µM).

Regarding `CCCCCCNC(=O)C1CCN(CC(=O)Nc2ccc3c(c2)NC(=O)C2(CCNC2=O)C3)CC1` (racemic), in the experiment on Candida tropicalis, the inhibition amounted to 24%. For the same molecule, the minimum inhibitory concentration (MIC) in the experiment on Candida albicans stood at 128 µg/mL (≈ 265 µM); with Aspergillus flavus, 256 µg/mL (≈ 529 µM); in the experiment with Aspergillus fumigatus it was 128 µg/mL (≈ 265 µM); in the experiment on Cryptococcus neoformans, 256 µg/mL (≈ 529 µM).

Consider `CCCCN(CCCC)C(=O)/C=C/C(=O)Nc1ccc2c(c1)NC(=O)C1(CCNC1=O)C2` (racemic), for which, in the experiment with Candida tropicalis, the inhibition came out at 28.2%. For the same molecule, the MIC is 256 µg/mL (≈ 581 µM) in the experiment on Candida albicans, 256 µg/mL (≈ 581 µM) in the experiment on Aspergillus flavus, 256 µg/mL (≈ 581 µM) with Aspergillus fumigatus and 128 µg/mL (≈ 291 µM) in the experiment with Cryptococcus neoformans.

As to `CCCCCNC(=O)/C=C/C(=O)Nc1ccc2c(c1)NC(=O)C1(CCNC1=O)C2` (racemic), in the experiment with Candida tropicalis, the inhibition turned out to be 37.9%. Also, the MIC in the experiment with Candida albicans was 256 µg/mL (≈ 642 µM); in the experiment on Aspergillus flavus it was 128 µg/mL (≈ 321 µM); with Aspergillus fumigatus, 128 µg/mL (≈ 321 µM); in the experiment with Cryptococcus neoformans, 256 µg/mL (≈ 642 µM).

Turning to `O=C(/C=C/C(=O)Nc1ccc2c(c1)NC(=O)C1(CCNC1=O)C2)NCc1ccccc1` (racemic), in the experiment with Candida tropicalis, the inhibition was 49.5%. The MIC with Candida albicans was 32 µg/mL (≈ 76.5 µM); in the experiment on Aspergillus flavus, 16 µg/mL (≈ 38.2 µM); in the experiment on Aspergillus fumigatus, 64 µg/mL (≈ 153 µM); in the experiment on Cryptococcus neoformans, 16 µg/mL (≈ 38.2 µM).

Consider `O=C(/C=C/C(=O)Nc1ccc2c(c1)NC(=O)C1(CCNC1=O)C2)Nc1ccc(F)c(Cl)c1` (racemic), for which, in the experiment with Candida tropicalis, the inhibition was 48.7%. Also, the MIC in the experiment on Candida albicans amounted to 32 µg/mL (≈ 70 µM); in the experiment on Aspergillus flavus, 64 µg/mL (≈ 140 µM); with Aspergillus fumigatus, 128 µg/mL (≈ 280 µM); with Cryptococcus neoformans, 32 µg/mL (≈ 70 µM).

With `COc1ccc(NC(=O)/C=C/C(=O)Nc2ccc3c(c2)NC(=O)C2(CCNC2=O)C3)cc1` (racemic), the inhibition in the experiment with Candida tropicalis stood at 49.3%. The minimal inhibitory concentration (MIC) in the experiment on Candida albicans turned out to be 64 µg/mL (≈ 147 µM); in the experiment on Aspergillus flavus it was 32 µg/mL (≈ 73.7 µM); in the experiment on Aspergillus fumigatus, 64 µg/mL (≈ 147 µM); in the experiment with Cryptococcus neoformans it was 32 µg/mL (≈ 73.7 µM).

With `CCCCNC(=O)/C=C/C(=O)Nc1ccc2c(c1)NC(=O)C1(CCNC1=O)C2` (racemic), the inhibition in the experiment on Candida tropicalis came to 35.7%. Further, the minimum inhibitory concentration (MIC) worked out at 128 µg/mL (≈ 333 µM) in the experiment on Candida albicans, 64 µg/mL (≈ 166 µM) in the experiment with Aspergillus flavus, 256 µg/mL (≈ 666 µM) in the experiment with Aspergillus fumigatus and 128 µg/mL (≈ 333 µM) in the experiment on Cryptococcus neoformans.

For `COc1ccccc1NC(=O)C1CCN(CC(=O)Nc2ccc3c(c2)NC(=O)C2(CCNC2=O)C3)CC1` (racemic), in the experiment with Candida tropicalis, the inhibition came to 39.7%. The MIC in the experiment on Candida albicans amounted to 64 µg/mL (≈ 127 µM); with Aspergillus flavus, 32 µg/mL (≈ 63.3 µM); with Aspergillus fumigatus, 128 µg/mL (≈ 253 µM); in the experiment with Cryptococcus neoformans, 32 µg/mL (≈ 63.3 µM).

Consider `CCCCNC(=O)C1CCN(CC(=O)Nc2ccc3c(c2)NC(=O)C2(CCNC2=O)C3)CC1` (racemic), for which, in the experiment on Candida tropicalis, the inhibition was 18.2%. Also, the MIC with Candida albicans stood at 256 µg/mL (≈ 562 µM); in the experiment with Aspergillus flavus, 64 µg/mL (≈ 140 µM); with Aspergillus fumigatus it was 256 µg/mL (≈ 562 µM); in the experiment on Cryptococcus neoformans, 128 µg/mL (≈ 281 µM).
